Laboratory results as given in publication PMC6385989, “Metformin Affects Heme Function as a Possible Mechanism of Action” (G3: Genes|Genomes|Genetics, 2018).

How the values were obtained:
Experiment in all cases: absorbance of reduced form, protection from air oxidation, one-site fit
Type in all cases: binding
[1] = molecular target: T1, myoglobin (Homo sapiens, UniProt P02144)
T1 construct: gene MB; commercial protein with heme
T1 sequence (P02144 2-154): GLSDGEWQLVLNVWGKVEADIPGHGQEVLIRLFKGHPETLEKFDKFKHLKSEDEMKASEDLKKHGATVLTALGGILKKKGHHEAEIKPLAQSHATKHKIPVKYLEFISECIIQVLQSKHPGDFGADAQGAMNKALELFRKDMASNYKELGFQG

[2] = molecular target: T2, cytochrome c; settings: PBS, 2 mM NH4OAc, ambient, 5 days; apparent, for retaining ferrous heme
T2 construct: gene CYCS; commercial reduced cytochrome c with heme

[3] = molecular target: T3, hemoglobin (Homo sapiens, UniProt P68871+P69905)
T3 construct: gene HBA1; commercial lyophilized hemoglobin with heme
T3 sequence (P69905 2-142): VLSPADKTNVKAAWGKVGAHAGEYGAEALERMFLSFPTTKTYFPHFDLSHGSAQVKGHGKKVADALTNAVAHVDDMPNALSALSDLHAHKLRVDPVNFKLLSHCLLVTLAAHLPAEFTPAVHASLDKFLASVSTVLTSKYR
T3 sequence (P68871 2-147): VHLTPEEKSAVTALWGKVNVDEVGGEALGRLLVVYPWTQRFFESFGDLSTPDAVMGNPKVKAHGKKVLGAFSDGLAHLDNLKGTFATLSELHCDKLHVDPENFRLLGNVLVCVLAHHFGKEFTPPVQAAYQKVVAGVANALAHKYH

Kd [1]: 570 µM
Kd [2]: 1150 µM
Kd [3]: 860 µM
Structure (SMILES): CN(C)C(=N)NC(=N)N [metformin]
